IC50 data for 34 compounds are collected here from patent publication US9115101B2 (Genentech, Inc., priority 2012, dated 2015).

Like-named read-outs stand apart in the source and are kept apart here.

For the assay, the target named is T1, RORc ligand binding domain (Homo sapiens, UniProt P51449).
T1 construct: host or cells: E. coli
T1 sequence (P51449 269-508 limits assumed): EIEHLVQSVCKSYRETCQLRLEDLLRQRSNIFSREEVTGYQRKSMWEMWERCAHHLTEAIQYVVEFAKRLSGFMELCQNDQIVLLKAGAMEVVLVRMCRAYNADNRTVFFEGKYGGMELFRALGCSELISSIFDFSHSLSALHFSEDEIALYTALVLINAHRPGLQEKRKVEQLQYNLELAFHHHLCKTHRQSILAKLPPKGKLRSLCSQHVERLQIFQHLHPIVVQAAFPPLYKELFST
As to the kind of experiment: In Vitro RORc Ligand Binding Assay (25-[3H]hydroxycholesterol radioligand filtration). The following applies: read-out: RORc IC50.

Setting [1] is: In Vitro RORc Ligand Binding Assay, Table 4.

Turning to `CC(=O)N1CCN(c2ccc(CN3C(C)CCCC(c4ccccc4)S3(=O)=O)c(F)c2)CC1` (single isomer, unassigned) [Example 330, 1-{4-[3-Fluoro-4-(3-methyl-1,1-dioxo-7-phenyl-[1,2]thiazepan-2-ylmethyl)-phenyl]-piperazin-1-yl}-ethanone], the IC50 under setting [1] is 0.037 µM.
On the same count and under the same terms, the value for `CC(=O)N1CCN(c2ccc(CN3CCC(C)CC(c4ccccc4)S3(=O)=O)c(F)c2)CC1` (single isomer, unassigned) [Example 331, 1-{4-[3-Fluoro-4-(5-methyl-1,1-dioxo-7-phenyl-[1,2]thiazepan-2-ylmethyl)-phenyl]-piperazin-1-yl}-ethanone] was 0.022 µM; that for `CC(=O)N1CCN(c2ccc(CN3CCC(C)CC(c4ccccc4)S3(=O)=O)c(F)c2)CC1` (single isomer, unassigned) [Example 332, 1-{4-[3-Fluoro-4-(5-methyl-1,1-dioxo-7-phenyl-[1,2]thiazepan-2-ylmethyl)-phenyl]-piperazin-1-yl}-ethanone] was 0.071 µM; that for `CC(=O)N1CCN(c2ccc(CN3CCC(C)CC(c4ccccc4)S3(=O)=O)c(F)c2)CC1` (single isomer, unassigned) [Example 333, 1-{4-[3-Fluoro-4-(5-methyl-1,1-dioxo-7-phenyl-[1,2]thiazepan-2-ylmethyl)-phenyl]-piperazin-1-yl}-ethanone] was 0.032 µM.
Same read-out and setting: as for `CC(=O)N1CCN(c2ccc(CN3CC(C)CCC(c4ccccc4)S3(=O)=O)c(F)c2)CC1` (single isomer, unassigned) [Example 334, 1-{4-[3-Fluoro-4-(4-methyl-1,1-dioxo-7-phenyl-[1,2]thiazepan-2-ylmethyl)-phenyl]-piperazin-1-yl}-ethanone], the figure is 0.005 µM.
Same read-out and setting: the value for `CC(=O)N1CCN(c2ccc(CN3CCCCC(c4ccccc4)S3(=O)=O)c(F)c2)[C@@H](C)C1` (single isomer, unassigned) [Example 335, 1-{4-[4-(1,1-Dioxo-7-phenyl-[1,2]thiazepan-2-ylmethyl)-3-fluoro-phenyl]-3-methyl-piperazin-1-yl}-ethanone] was 0.008 µM; that for `O=S1(=O)C(c2ccccc2)CCCCN1Cc1ccc(N2CCC(n3cnnc3)CC2)cc1` (single isomer, unassigned) [Example 336, 7-Phenyl-2-[4-(4-[1,2,4]triazol-4-yl-piperidin-1-yl)-benzyl]-[1,2]thiazepane 1,1-dioxide] was 0.028 µM; that for `O=c1[nH]nc(C2CCN(c3ccc(CN4CCCCC(c5ccccc5)S4(=O)=O)cc3)CC2)o1` (single isomer, unassigned) [Example 337, 5-{1-[4-(1,1-Dioxo-7-phenyl-[1,2]thiazepan-2-ylmethyl)-phenyl]-piperidin-4-yl}-3H-[1,3,4]oxadiazol-2-one] was 0.024 µM.
On to `CC(=O)N1CCN(c2ccc(CN3CC(C)CCC(c4ccccc4)S3(=O)=O)c(F)c2)CC1` (single isomer, unassigned) [Example 338, 1-{4-[3-Fluoro-4-(4-methyl-1,1-dioxo-7-phenyl-[1,2]thiazepan-2-ylmethyl)-phenyl]-piperazin-1-yl}-ethanone], for which the IC50 under setting [1] is 0.012 µM.
Regarding `CC(=O)N1CCN(c2ccc(CN3CC(C)CCC(c4ccccc4)S3(=O)=O)c(F)c2)CC1` (single isomer, unassigned) [Example 339, 1-{4-[3-Fluoro-4-(4-methyl-1,1-dioxo-7-phenyl-[1,2]thiazepan-2-ylmethyl)-phenyl]-piperazin-1-yl}-ethanone], the IC50 under setting [1] amounted to 0.015 µM.
Consider `CC(=O)N1CCN(c2ccc(CN3CC(C)CCC(c4ccccc4)S3(=O)=O)c(F)c2)CC1` (single isomer, unassigned) [Example 340, 1-{4-[3-Fluoro-4-(4-methyl-1,1-dioxo-7-phenyl-[1,2]thiazepan-2-ylmethyl)-phenyl]-piperazin-1-yl}-ethanone], for which the IC50 under setting [1] worked out at 0.054 µM.
`CC(=O)N1CCN(c2ccc(CN3CCCCC(c4ccccc4)S3(=O)=O)c(F)c2)[C@@H](C)C1` (single isomer, unassigned) [Example 341, 1-{4-[4-(1,1-Dioxo-7-phenyl-[1,2]thiazepan-2-ylmethyl)-3-fluoro-phenyl]-3-methyl-piperazin-1-yl}-ethanone]: the IC50 under setting [1] was 0.026 µM.
Consider `O=S1(=O)C(c2ccccc2)CCCCN1Cc1ccc(N2CCC(n3cnnc3)CC2)cc1` (single isomer, unassigned) [Example 342, 7-Phenyl-2-[4-(4-[1,2,4]triazol-4-yl-piperidin-1-yl)-benzyl]-[1,2]thiazepane 1,1-dioxide], for which the IC50 under setting [1] is 0.075 µM.
In the case of `O=c1[nH]nc(C2CCN(c3ccc(CN4CCCCC(c5ccccc5)S4(=O)=O)cc3)CC2)o1` (single isomer, unassigned) [Example 343, 5-{1-[4-(1,1-Dioxo-7-phenyl-[1,2]thiazepan-2-ylmethyl)-phenyl]-piperidin-4-yl}-3H-[1,3,4]oxadiazol-2-one], the IC50 under setting [1] was found to be 0.449 µM.
Consider `CC(=O)N1CCN(c2ccc(CN3CCCCC(c4ccccc4)S3(=O)=O)cc2F)CC1` (single isomer, unassigned) [Example 344, 1-{4-[4-(1,1-Dioxo-7-phenyl-[1,2]thiazepan-2-ylmethyl)-2-fluoro-phenyl]-piperazin-1-yl}-ethanone], for which, under setting [1], the IC50 turned out to be 0.032 µM.
With `CS(=O)(=O)N1CCC(Nc2ccc(CN3CCCCC(c4ccccc4)S3(=O)=O)c(F)c2)CC1` (single isomer, unassigned) [Example 345, [4-(1,1-Dioxo-7-phenyl-[1,2]thiazepan-2-ylmethyl)-3-fluoro-phenyl]-(1-methanesulfonyl-piperidin-4-yl)-amine], the IC50 under setting [1] is 0.008 µM.
Regarding `CC(=O)N1CCN(c2ccc(CN3CCCCC(c4ccccc4)S3(=O)=O)cc2F)CC1` (single isomer, unassigned) [Example 346, 1-{4-[4 (1,1-Dioxo-7-phenyl-[1,2]thiazepan-2-ylmethyl)-2-fluoro-phenyl]-piperazin-1-yl}-ethanone], under setting [1], the half-inhibitory concentration (IC50) stood at 0.05 µM.
For the compound `CS(=O)(=O)N1CCC(Nc2ccc(CN3CCCCC(c4ccccc4)S3(=O)=O)c(F)c2)CC1` (single isomer, unassigned) [Example 347, [4-(1,1-Dioxo-7-phenyl-[1,2]thiazepan-2-ylmethyl)-3-fluoro-phenyl]-(1-methanesulfonyl-piperidin-4-yl)-amine], under setting [1], the IC50 came out at 0.005 µM.
In the case of `C[C@H]1CCC(c2ccccc2)S(=O)(=O)N1Cc1ccc(C(=O)NC2CCC(O)C2)cc1` (single isomer, unassigned) [Example 408], the IC50 amounted to 3.52 µM.
The same measure, in the same setting: as for `C[C@H]1CCC(c2ccccc2)S(=O)(=O)N1Cc1ccc(C(=O)NC2CCC(O)C2)cc1` (single isomer, unassigned) [Example 409], the figure is 1.88 µM; as for `C[C@H]1CCC(c2ccccc2)S(=O)(=O)N1Cc1ccc(C(=O)NC2CCC(O)C2)cc1` (single isomer, unassigned) [Example 410], 6.5 µM.
As to `C[C@H]1CCC(c2ccccc2)S(=O)(=O)N1Cc1ccc(C(=O)NC2CCC(O)C2)cc1` (single isomer, unassigned) [Example 411], the IC50 was 3.52 µM.
Take `C[C@H]1CCC(c2ccccc2)S(=O)(=O)N1Cc1ccc(N2CCC(C)(n3cnnc3)CC2)cc1F` (single isomer, unassigned) [Example 412]: the IC50 was 0.585 µM.
Still for that read-out and setting: as for `C[C@H]1CCC(c2ccccc2)S(=O)(=O)N1Cc1ccc(N2CCC(C)(n3cnnc3)CC2)cc1F` (single isomer, unassigned) [Example 413], the figure is 0.032 µM.
Turning to `C[C@H]1CCC(c2ccccc2)S(=O)(=O)N1Cc1ccc(N2CCN3C(=O)OCC3C2)cc1F` (single isomer, unassigned) [Example 418], the IC50 turned out to be 0.129 µM.
On to `C[C@H]1CCC(c2ccccc2)S(=O)(=O)N1Cc1ccc(N2CCN3C(=O)OCC3C2)cc1F` (single isomer, unassigned) [Example 420], for which the IC50 came out at 0.028 µM.
The same measure, in the same setting: as for `C[C@H]1CCC(c2ccccc2)S(=O)(=O)N1Cc1ccc(N2CC(n3cnnc3)C2)cc1F` (single isomer, unassigned) [Example 429], the figure is 0.316 µM; as for `C[C@H]1CCC(c2ccccc2)S(=O)(=O)N1Cc1ccc(OC[C@H]2CCC(=O)N2)cc1` (single isomer, unassigned) [Example 450], 1.05 µM.
On to `C[C@H]1CCC(c2ccccc2)S(=O)(=O)N1Cc1ccc(OC[C@@H]2CCC(=O)N2)cc1` (single isomer, unassigned) [Example 454], for which the IC50 was 0.62 µM.
`CC(=O)N1CCN(c2ccc(CN3CCC(c4ccc(F)cc4)S3(=O)=O)c(F)c2)CC1` (stereo not shown) [Example 9, 1-(4-{3-Fluoro-4-[5-(4-fluoro-phenyl)-1,1-dioxo-isothiazolidin-2-ylmethyl]-phenyl}-piperazin-1-yl)-ethanone]: the IC50 under setting [1] came to 7.6 µM.
Consider `CC(=O)N1CCN(c2ccc(CN3CCCC(c4ccccc4)S3(=O)=O)c(F)c2)CC1` (stereo not shown) [Example 10, 1-{4-[4-(1,1-Dioxo-6-phenyl-[1,2]thiazinan-2-ylmethyl)-3-fluoro-phenyl]-piperazin-1-yl}-ethanone], for which, under setting [1], the IC50 stood at 0.149 µM.
For the compound `CC(=O)N1CCN(c2ccc(CN3CCOCC(c4ccccc4)S3(=O)=O)c(F)c2)CC1` (stereo not shown) [Example 21, 1-{4-[4-(4,4-Dioxo-3-phenyl-[1,4,5]oxathiazepan-5-ylmethyl)-3-fluoro-phenyl]-piperazin-1-yl}-ethanone], the IC50 under setting [1] turned out to be 0.209 µM.
`C[C@@H]1CCC(c2ccccc2)S(=O)(=O)N1Cc1ccc(OC2CCN(S(C)(=O)=O)CC2)cc1` (stereo partly drawn) [Example 52, (3R)-3-Methyl-2-(4-((1-(methylsulfonyl)piperidin-4-yl)oxy)benzyl)-6-phenyl-1,2-thiazinane 1,1-dioxide]: the IC50 under setting [1] was 0.02 µM.
Same read-out and setting: as for `C[C@@H]1CCC(c2ccccc2)S(=O)(=O)N1Cc1ccc(OC2CCN(S(C)(=O)=O)CC2)cc1F` (stereo partly drawn) [Example 53, 2-(2-fluoro-4-((1-(methylsulfonyl)piperidin-4-yl)oxy)benzyl)-(3R)-3-methyl-6-phenyl-1,2-thiazinane 1,1-dioxide], the figure is 0.006 µM.

As a reminder, the IC50 is the concentration that gives 50% inhibition.
